Test results taken from patent publication US5962466A, “Reduction of hair growth using inhibitors of matrix metalloproteinases” (priority 1998, dated 1999).
Where two headings read alike, the source gives them in different places.

Assays:
flank organ hair growth = experiment: Golden Syrian hamster assay (flank organ hair mass); format: in vivo; conditions: topical, 13 applications
From the text: Male intact Golden Syrian hamsters are considered acceptable models for human beard hair growth in that they display oval shaped flank organs, one on each side, each about 8 mm. in major diameter, which grow thick black and coarse hair similar to human beard hair. These organs produce hair in response to androgens in the hamster. To evaluate the effectiveness of a composition including an inhibitor of an MMP, the flank organs of each of a group of hamsters are depilated by applying a thioglycolate based chemical depilatory (Surgex). To one organ of each animal 10 μl. of vehicle alone once a day is applied, while to the other organ of each animal an equal amount of vehicle containing an inhibitor of a matrix metalloproteinase is applied. After thirteen applications (one application per day for five days a week), the flank organs are shaved and the amount of recovered hair (hair mass) from each is weighed. Percent-reduction of hair growth is calculated by subtracting the hair mass (mg) value of the test compound treated side from the hair mass value of the vehicle treated side; the delta value obtained is then divided by the hair mass value of the vehicle treated side, and the resultant number is multiplied by 100.
The above-described assay will be referred to herein as the "Golden Syrian hamster" assay.

[1] = target: T1, MMP-9 (92 kD collagenase) (Mesocricetus auratus, UniProt A0A1U7R3J7); experiment: Zymographic assay of MMP-9 in flank organ hair follicle homogenates; format: biochemical, hamster; conditions: read-out: Percent Inhibition of Flank Organ MMP-9 Collagenase Activity
T1 construct: Flank organ hair follicles were removed from untreated hamsters and homogenized in a buffer; from tissue; host or cells: hamster flank organ hair follicle homogenate
T1 sequence (A0A1U7R3J7 20-718): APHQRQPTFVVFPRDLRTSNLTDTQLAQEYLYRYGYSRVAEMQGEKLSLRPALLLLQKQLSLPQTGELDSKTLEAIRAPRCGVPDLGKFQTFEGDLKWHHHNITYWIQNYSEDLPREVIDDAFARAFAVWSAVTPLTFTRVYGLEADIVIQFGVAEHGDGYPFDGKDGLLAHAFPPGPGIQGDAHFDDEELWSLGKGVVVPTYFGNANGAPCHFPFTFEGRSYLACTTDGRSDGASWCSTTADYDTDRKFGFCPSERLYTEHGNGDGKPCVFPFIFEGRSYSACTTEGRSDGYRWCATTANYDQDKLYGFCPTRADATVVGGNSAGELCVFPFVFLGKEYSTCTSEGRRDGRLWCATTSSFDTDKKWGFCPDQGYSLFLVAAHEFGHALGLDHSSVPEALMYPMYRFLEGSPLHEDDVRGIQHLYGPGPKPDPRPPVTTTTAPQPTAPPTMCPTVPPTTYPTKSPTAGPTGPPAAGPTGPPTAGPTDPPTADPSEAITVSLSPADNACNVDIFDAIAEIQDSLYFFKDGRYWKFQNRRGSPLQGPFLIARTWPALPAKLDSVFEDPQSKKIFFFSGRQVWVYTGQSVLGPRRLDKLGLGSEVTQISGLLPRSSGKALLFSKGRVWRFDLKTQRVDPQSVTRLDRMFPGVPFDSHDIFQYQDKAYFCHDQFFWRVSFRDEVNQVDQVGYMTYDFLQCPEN
Protocol: (§1) The matrix metalloproteinases MMP-2 (72 kD collagenase) and MMP-9 (92 kD collagenase) were assayed in flank organ hair follicle homogenates using a zymographic assay. Zymography is an electrophoretic technique used to identify proteolytic activity in enzymes separated in polyacrylamide gels under nondenaturing conditions (Kleiner and Stetler-Stevenson, Analytical Biochemistry 218: 325-329, 1994). Flank organ hair follicles were removed from untreated hamsters and homogenized in a buffer containing 25 mM Tris, pH 7.5, and 50 mM sucrose. Samples of the homogenate were added to an equal volume of zymogram sample buffer containing 63 mM Tris-HCl, pH 6.8, 10% glycerol, 2% SDS, and 0.0025% bromophenol blue. (Note: all buffers and acrylamide gels were obtained from Novex, San Diego, Calif.). The samples were incubated for 10 minutes at room temperature and then loaded onto a precast 10% Tris-Glycine gel with 0.1% gelatin incorporated throughout the gel. The gel was electrophoresed at 125 constant volts for about 90 minutes. The gel was incubated for 30 minutes in renaturing buffer consisting of 2.5% triton X-100 followed by incubation in developing buffer which contained 10 mM Tris-base, 40 mM Tris-HCl, 200 mM NaCl, 5 mM CaCl2, and 0.02% Brij 35. The developing buffer was decanted after 30 minutes and replaced with fresh buffer for incubation overnight.
(§2) For inhibition experiments, the inhibitor was included in the renaturing and development buffer steps. The gel was stained with Coomassie blue 0.25% for 1 hour and then destained overnight. Transparent bands were visualized against a blue background. MMP-2 and MMP-9 standards were supplied by Oncologix (Gaithersburg, Md.). The relative degree of digestion, representing collagenase activity, was quantitated by scanning photographs of the gels using Adobe Photoshop (Adobe Systems Inc., Mountain View, Calif.) and IPLab Gel (Signal Analytics, Vienna, Va.) software. The images were digitally inverted so that the integrations of bands would be reported as positive values. This method of analysis was standardized with respect to protein concentration.

[2] = target: T2, MMP-2 (72 kD collagenase) (Mesocricetus auratus, UniProt A0A1U7R1N2); experiment: Zymographic assay of MMP-2 in flank organ hair follicle homogenates; format: biochemical, hamster; conditions: read-out: Percent Inhibition of Flank Organ MMP-2 Collagenase Activity
T2 construct: Flank organ hair follicles were removed from untreated hamsters and homogenized in a buffer; from tissue; host or cells: hamster flank organ hair follicle homogenate
T2 sequence (A0A1U7R1N2 30-662): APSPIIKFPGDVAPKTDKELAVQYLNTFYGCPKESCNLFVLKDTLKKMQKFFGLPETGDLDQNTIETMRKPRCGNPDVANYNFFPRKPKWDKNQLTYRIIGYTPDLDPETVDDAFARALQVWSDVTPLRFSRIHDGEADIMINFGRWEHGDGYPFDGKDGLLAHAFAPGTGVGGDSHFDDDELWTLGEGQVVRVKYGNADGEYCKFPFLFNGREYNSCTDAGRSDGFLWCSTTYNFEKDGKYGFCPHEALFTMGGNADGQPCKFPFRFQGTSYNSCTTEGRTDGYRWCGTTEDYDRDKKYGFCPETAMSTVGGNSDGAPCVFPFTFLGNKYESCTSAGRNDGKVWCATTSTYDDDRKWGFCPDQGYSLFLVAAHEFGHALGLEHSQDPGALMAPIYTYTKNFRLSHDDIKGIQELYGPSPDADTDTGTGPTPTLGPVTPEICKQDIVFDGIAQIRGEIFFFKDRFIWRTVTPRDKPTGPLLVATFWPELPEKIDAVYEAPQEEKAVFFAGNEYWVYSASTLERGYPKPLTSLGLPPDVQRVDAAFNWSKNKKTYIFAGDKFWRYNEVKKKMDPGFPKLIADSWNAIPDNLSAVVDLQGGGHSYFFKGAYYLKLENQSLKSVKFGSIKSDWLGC
Protocol: as §1, §2

C=C1c2cccc(O)c2C(=O)C2=C(O)[C@]3(O)C(=O)C(C(N)=O)=C(O)[C@@H](N(C)C)[C@@H]3[C@@H](O)[C@H]12 [Methacycline, 6-methylene oxytetracycline]
% Reduction of hair mass (flank organ hair growth; dose 10%, Vehicle A, pH 4.0): 57 ± 9% | Hair Mass (mg) Treated (flank organ hair growth; dose 10%, Vehicle A, pH 4.0): 0.68 ± .11 mg | inhibition at 1000 µM ([1]; concentration 1 mM): 100% | inhibition at 1000 µM ([2]; concentration 1 mM): 100%

CN(C)c1ccc(O)c2c1C[C@H]1C[C@H]3[C@H](N(C)C)C(O)=C(C(N)=O)C(=O)[C@@]3(O)C(O)=C1C2=O [Minocycline, 7-dimethylamino-6-dimethyl-6-deoxytetracycline]
% Reduction of hair mass (flank organ hair growth; dose 10%, Vehicle A, pH 4.0): 63 ± 6% | Hair Mass (mg) Treated (flank organ hair growth; dose 10%, Vehicle A, pH 4.0): 0.82 ± .11 mg | inhibition at 1000 µM ([1]; concentration 1 mM): 100% | inhibition at 1000 µM ([2]; concentration 1 mM): 100%

c1cnc2c(c1)ccc1cccnc12 [1,10-Phenanthroline, 1,10-phenanthroline]
% Reduction of hair mass (flank organ hair growth; dose 5%, Vehicle A, pH 7.0): 45 ± 9% | Hair Mass (mg) Treated (flank organ hair growth; dose 5%, Vehicle A, pH 7.0): 1.40 ± .24 mg | inhibition at 100 µM ([1]; concentration 0.1 mM): 100% | inhibition at 500 µM ([1]; concentration 0.5 mM): 100% | inhibition at 100 µM [2]: 100% | inhibition at 500 µM [2]: 100%

CN(C)C1C(O)=C(C(N)=O)C(=O)C2(O)C(O)=C3C(=O)c4c(O)cccc4C(C)(O)C3CC12 (stereo not drawn) [Tetracycline, 4-(dimethylamino)-1,4,4a,5,5a,6,11,12a-octahydro-3,6,10,12,12a-pentahydroxy-6-methyl-1,11-dioxo-2-naphthacenecarboxamide]
% Reduction of hair mass (flank organ hair growth; dose 10%, Vehicle B, pH 4.5): 56 ± 9% | Hair Mass (mg) Treated (flank organ hair growth; dose 10%, Vehicle B, pH 4.5): 0.67 ± .10 mg | inhibition at 100 µM [1]: 49% | inhibition at 500 µM [1]: 70% | inhibition at 1000 µM [1]: 100% | inhibition at 100 µM [2]: 31% | inhibition at 500 µM [2]: 64% | inhibition at 1000 µM [2]: 100%

C[C@H]1c2cccc(O)c2C(O)=C2C(=O)[C@]3(O)C(O)=C(C(N)=O)C(=O)[C@@H](N(C)C)[C@@H]3[C@@H](O)[C@@H]21 [Doxycycline, α-6-deoxy-5-hydroxytetracycline]
% Reduction of hair mass (flank organ hair growth; dose 10%, Vehicle A, pH 5.5): 27 ± 9% | Hair Mass (mg) Treated (flank organ hair growth; dose 10%, Vehicle A, pH 5.5): 1.73 ± .22 mg | inhibition at 100 µM ([1]; concentration 0.1 mM): 28% | inhibition at 500 µM ([1]; concentration 0.5 mM): 100% | inhibition at 100 µM ([2]; concentration 0.1 mM): 89% | inhibition at 500 µM ([2]; concentration 0.5 mM): 100%

O=Cc1ccc(O)c(O)c1 [Protocatechuic aldehyde, 3,4-dihydroxybenzaldehyde]
% Reduction of hair mass (flank organ hair growth; dose 10%, Vehicle A, pH 3.5): 32 ± 9% | Hair Mass (mg) Treated (flank organ hair growth; dose 10%, Vehicle A, pH 3.5): 0.92 ± .13 mg
